Several values for one entry are separate records, joined by “and”; a condition that tells them apart may be missing. Identical values can stand only once. Like-named read-outs stand apart in the source and are kept apart here.
Legend:
FMRP = assay: 5-AzadC treatment of FXS lymphoblast cell lines, western blot of FMRP relative to GAPDH; assay type: cell-based, human; conditions: FXS1 and FXS2 LCLs, 5-AzadC vs DMSO
Protocol: For each cell culture, 30×10^5 cells/ml were added to a final volume of 20 ml media (RPMI1640 medium (Sigma-Aldrich) supplemented with 15% fetal bovine serum (FBS) and 2.5% L-glutamine at 37° C. with 5% C02) per T25 flask. 5-Aza-2′-deoxycytidine (5-AzadC) (Sigma-Aldrich, A3656) was added to the cell cultures (final concentration 1 μM) for 7 consecutive days. A 2 mM stock of 5-AzadC was made in DMSO. For each cell line, two independent treatments were performed (n=2). For the no treatment controls for each cell line, DMSO was added to the flasks. […]
Cells were homogenized at 4° C. in RIPA buffer, with incubation on ice for 10 minutes and dissociation by pipetting. […] Protein concentration was determined using BCA reagent. Proteins ([…]) were diluted in SDS-bromophenol blue reducing buffer with 40 mM DTT and analyzed using western blotting with the following antibodies: FMRP (Millipore, mAb2160, 1:1,000), FMRP (Abcam, ab17722, 1:1,000) and GAPDH (14C10, Cell Signaling Technology, mAb 2118, 1:2,000), diluted in 1× TBST with 5% non-fat milk. […]
(§1) DNA methylation of the CpG island upstream of the FMR1 gene promoter in FXS individuals (MFM, Methylated full mutation) contributes to transcriptional silencing of the locus and loss of FMRP. […] Next, FXS1 and FXS2 cell lines were treated with the 5-AzadC and then measured FMR1 RNA and FMRP levels. […]

[1] = test system: FMR1 transcripts (total, FMR1-205, FMR1-217) in FXS-NSC; conditions: FXS iPSC-derived NSCs, re-analyzed from RNA-seq data of Vershkov et al., cited from earlier work
[2] = test system: FMR1 RNA (full-length FMR1 and FMR1-217) in FXS1 and FXS2 LCLs; assay: 5-AzadC treatment of FXS lymphoblast cell lines, RT-qPCR of full-length FMR1 and FMR1-217 RNA relative to GAPDH; assay type: cell-based, human; conditions: 1 μM, seven days, RT-qPCR normalized to GAPDH
Protocol: One μg of total RNA was primed with oligo(dT)20 to generate cDNA with a QuantiTect cDNA synthesis kit (Qiagen, #205311) using random hexamers. qPCR was performed using the iTaq™ Universal SYBR® Green Supermix (BIO-RAD #1725122) on a QuantStudio 3 qPCR machine in duplicate.
Lymphoblast cell lines (LCL) were obtained from Coriell Institute from two FXS individuals (GM07365 (FXS1), GM06897 (FXS2)) and two typically developing control males (GM07174 (WT3), GM06890 (WT4)). Cells were cultured in RPMI 1640 medium (Sigma-Aldrich), supplemented with 15% fetal bovine serum (FBS) and 2.5% L-glutamine at 37° C. with 5% CO2 in T25 flasks.
For each cell culture, 30×10^5 cells/ml were added to a final volume of 20 ml media (RPMI1640 medium (Sigma-Aldrich) supplemented with 15% fetal bovine serum (FBS) and 2.5% L-glutamine at 37° C. with 5% C02) per T25 flask. 5-Aza-2′-deoxycytidine (5-AzadC) (Sigma-Aldrich, A3656) was added to the cell cultures (final concentration 1 μM) for 7 consecutive days. A 2 mM stock of 5-AzadC was made in DMSO. For each cell line, two independent treatments were performed (n=2). For the no treatment controls for each cell line, DMSO was added to the flasks. For samples with both 5-AzadC and ASO treatment, 80 nM or 160 nM ASOs or vehicle were added on Day 1 and either 5-AzadC or DMSO was added each day from Day 2 up to Day 9 at a final concentration of 1 μM. On Day 9 the cells were collected in 1× phosphate buffered saline to proceed with RNA extraction or Western blotting.
as §1, with “FMRP. FMR1 transcription can be reactivated by treatment with the nucleoside analogue 5-AzadC (5-aza-2′-deoxycytidine), which inhibits DNA methylation (Tabolacci et al., 2016b, 2016a).” for “FMRP.”

[3] = FXS1 LCL (GM07365, fully methylated)

SMILES: Nc1ncn([C@H]2C[C@H](O)[C@@H](CO)O2)c(=O)n1 [5-AzadC, 5-Aza-2′-deoxycytidine]
- FMRP level (FMRP/GAPDH, western blot) (FMRP): In neither cell line did 5-AzadC treatment induce an increase in FMRP
- FMR1 (Total) reads ([1]; biologic duplicates): 9.9 TPM and 6.1 TPM
- FMR1-217 reads ([1]; biologic duplicates): 6.9 TPM and 3.9 TPM
- FMR1-217 expression (RNA-seq reads), in words [1]: strong FMR1-217 expression was observed only in the 5-AzadC-treated cells
- total FMR1 and FMR1-205 expression (RNA-seq reads), in words [1]: strong total FMR1 and FMR1-205 expression
- FMR1-217 expression (RNA-seq reads), in words ([1]; listed as 5-azadC): FMR1-217 reads are detected only in the 5-azadC-treated samples
- FMR1-217 RNA relative to DMSO-treated cells [2, 3]: significant increases
- full-length FMR1 RNA relative to DMSO-treated cells [2, 3]: significant increases
- full-length FMR1 and FMR1-217 RNA relative to DMSO-treated cells ([2]; FXS2 LCL (GM06897, partially methylated)): increase of only full-length FMR1 RNA

From US20250059604A1, “BIOMARKERS AND METHODS RELATED TO FRAGILE X SYNDROME” (University of Massachusetts, priority 2021, published 2025)
